Data reported in US20240043386A1, “Modulators of the Cystic Fibrosis Transmembrane Conductance Regulator Protein and Methods of Use” (AbbVie Global Enterprises Ltd., priority 2021, published 2024).
Like-named read-outs stand apart in the source and are kept apart here.

Tests used:
F508delCFTR = molecular target: T1, F508delCFTR (Homo sapiens, UniProt P13569, DEL508-508); assay: Cell Surface Expression-Horse Radish Peroxidase (CSE-HRP) assay in CFBE41o-F508delCFTR-HRP cells; assay type: cell-based; settings: for EC50: CFBE41o-F508delCFTR-HRP cells, 18-24 hours at 33° C., luminescence; for Maximum % activity (with co-corrector) / Maximum % activity (without co-corrector): normalized to on-plate positive control corrector (2 μM)
T1 construct: expressed in transfected cells; host or cells: CFBE41o- human lung-derived epithelial cell line, doxycycline-inducible expression
Description: A cellular assay for measuring the F508delCFTR cell surface expression after correction with test compounds either without or with a co-corrector (2 μM of 3-[(2R,4R)-4-({[1-(2,2-difluoro-1,3-benzodioxol-5-yl)cyclopropyl]carbonyl}amino)-7-methoxy-3,4-dihydro-2H-chromen-2-yl]benzoic acid), was developed in human lung derived epithelial cell line (CFBE4lo-) (Veit G et al, (2012) Mol Biol Cell. 23(21): 4188-4202). The development was achieved by expressing the F508delCFTR mutation along with a horseradish peroxidase (HRP) in the fourth exofacial loop, and then measuring the HRP activity using luminescence readout from these cells, CFBE4lo-F508delCFTR-HRP, that were incubated overnight with the test corrector compounds, either without or with the co-corrector. For this primary assay, the CFBE4lo-F508delCFTR-HRP cells were plated in 384-well plates (Greiner Bio-one; Cat 781080) at 4,000 cells/well along with 0.5 μg/mL doxycycline to induce the F508delCFTR-RP expression and further incubated at 37° C., 5% CO2 for 68-72 hours. The test compounds were then added either without or with a co-corrector at the required concentrations and further incubated for 18-24 hours at 33° C. The highest concentration tested was 20 μM or 30 μM (GI-1 to GIII-36) with an 8-point concentration response curve using a 3-fold dilution in both the test compound without or with the co-corrector. Three replicate plates were run to determine one EC50. All plates contained negative controls (dimethyl sulfoxide, DMSO) and positive control (2 μM or 3 μM (GI-1 to GIII-36) of 3-[(2R,4R)-4-({[1-(2,2-difluoro-1,3-benzodioxol-5-yl)cyclopropyl]carbonyl}amino)-7-methoxy-3,4-dihydro-2H-chromen-2-yl]benzoic acid) as well as on-plate concentration response of the positive control. Post incubation, the plates were washed 5× times with Dulbecco's phosphate buffered saline (DPBS), followed by the addition of the HRP substrate, luminol (50 μL), and measuring the HRP activity using luminescence readout on EnVision® Multilabel Plate Reader (Perkin Elmer; product number 2104-0010). The raw counts from the experiment were analyzed using Accelrys® Assay Explorer v3.3.
Z′ greater than 0.5 was used as passing quality control criteria for the plates. The Z′ is defined as:
1−[3*SDPositive Control+3*SDNegative Control/Absolute (MeanPositive Control−MeanNegative Control)]
The % activity measured at each of the 8 test concentrations of the test compound added either without or with a co-corrector (2 μM or 3 μM (GI-1 to GIII-36) of 3-[(2R,4R)-4-({[1-(2,2-difluoro-1,3-benzodioxol-5-yl)cyclopropyl]carbonyl}amino)-7-methoxy-3,4-dihydro-2H-chromen-2-yl]benzoic acid) was normalized to the on-plate positive control using the following formulae:
% activity (Test compound without co-corrector)=[(test compound without co-corrector response−DMSO response)/(positive control response−DMSO response)]*100
% activity (Test compound with co-corrector)=[(test compound with co-corrector response−DMSO response)/(positive control response−DMSO response)]*100
The maximum % activity achieved for the test compound either without or with a co-corrector at any tested concentration is presented in Table 3 along with the respective EC50's calculated using the following general sigmoidal curve with variable Hill slope equation (described as Model 42 in the Accelrys® Assay Explorer v3.3 software):
General sigmoidal curve with concentration, response, top, bottom, EC50 and Hill slope. This model describes a sigmoidal curve with an adjustable baseline, a. The equation can be used to fit curves where response is either increasing or decreasing with respect to the independent variable, “x”.

F508del/F508del CFTR = molecular target: T2, F508del/F508del CFTR (Homo sapiens, UniProt P13569, DEL508-508); assay: Trans-Epithelial Current Clamp (TECC) assay using primary human bronchial epithelial cells; assay type: cell-based; settings: for Emax (% Dual): maximum percent activity relative to positive control (co-corrector 0.15 μM + potentiator 0.45 μM = 100%), primary hBE cells F508del/F508del; for EC50: primary hBE cells homozygous F508del/F508del, test C2 corrector with co-corrector and potentiator, 18-24 hours at 37° C., equivalent CFTR current (IEQ)/AUC
T2 construct: cells isolated from CF patients with the homozygous mutation; endogenous in cells; host or cells: primary human bronchial epithelial (hBE) cells from CF patients homozygous for F508del
Text: A cell-based assay was developed using the primary human bronchial epithelial cells (hBE cells) with F508del/F508del CFTR and other mutations.
Primary human bronchial epithelial (hBE) cells from CFTR patients with homozygous F508del/F508del mutation were expanded from 1×10^6 to 250×10^6 cells (Neuberger, T et al., 2011, Methods Mol Biol 741:39-54). For this purpose, cells isolated from CF patients with the homozygous mutation, procured from the CF center tissue procurement and cell culture core at the Marsico Lung Institute at UNC (Randell), the Cystic Fibrosis translational research center at McGill University (University), and Rosalind Franklin University Medical School (RFUMS) were seeded onto 24 well Corning (Cat #3378) filter plates that were coated with 3T3 conditioned media and grown at an air-liquid interface for 35 days using an Ultroser® G supplemented differentiation media. All the primary human bronchial epithelial cells were collected in accordance with institutional review board approval protocols. Apical surface mucus was removed 72 hours before the experiment by incubating the apical surface of the cells for 30 minutes with 3 mM dithiothreitol (DTT) prepared in Dulbecco's phosphate buffered saline (DPBS) with Ca^2+ and Mg^2+. This was followed with aspiration of the mucus from the apical surface along with DPBS. The apical surface was re-washed with phosphate buffered saline (PBS) incubated for 30 minutes followed with aspiration. These hBE cells were then incubated with the desired concentrations of the test C2 corrector compounds along with co-corrector, 4-[(2R,4R)-4-({[1-(2,2-difluoro-1,3-benzodioxol-5-yl)cyclopropyl]carbonyl}amino)-7-(difluoromethoxy)-3,4-dihydro-2H-chromen-2-yl]benzoic acid and potentiator, (5-{3-amino-5-[4-(trifluoromethoxy)benzene-1-sulfonyl]pyridin-2-yl}-1,3,4-oxadiazol-2-yl)methanol, for 18-24 hours at 37° C., 5% CO2. The desired concentrations of the correctors and potentiator compounds were prepared from the 10 mM stocks in differentiation media and were always applied on the basolateral side of the epithelial cells. We also used an assay format where a fixed concentration of potentiator was added chronically along with the corrector compounds. This chronic treatment with the potentiator helped eliminate any interaction that might happen with CFTR modulators (correctors and potentiators) and thereby determined the true efficacy of the modulator combinations reflective of clinical relevance.
The assay uses a Transepithelial Current Clamp (TECC) (Vu, C B et al., 2017; J Med Chem 60:458-473) instrument that can measure the functionality of the mutated channel by measuring the equivalent CFTR current (IEQ) generated by the polarized primary epithelial cells. We used a TECC-24 with a 24-channel electrode manifold allowing for the simultaneous measurement of the transepithelial voltage, VT, and transepithelial resistance, RT, under current clamp conditions, from 24 filters using a 24 well Costar filter plate. The design of the filters in the 24 well filter plates was exactly the same as the design of an individual Transwell filter used in the classical Ussing Chamber with a surface area of 0.33 cm^2. Each measured VT values were corrected for the electrode offset potential measured using buffer alone in a separate plate, and each measured RT values were then corrected for the combined solution series and empty filter resistances. The corrected VT and RT values were then used to calculate the equivalent current, IEQ using Ohm's law (IEQ=VT/RT). The area under the curve (AUC) for the time period between the forskolin peak IEQ response and at the time of bumetanide addition was also calculated using a one-third trapezoid method, in addition to calculating the IEQ. The assay was run in a 24-well format and all 24-wells were measured at the same time point giving a higher throughput for this assay. […]

[1] = with co-corrector (2 μM), read-out: EC50 (with co-corrector)
[2] = without co-corrector, read-out: EC50 (without co-corrector)

T2 sequence (P13569 with tags, fused parts or gaps DEL508-508): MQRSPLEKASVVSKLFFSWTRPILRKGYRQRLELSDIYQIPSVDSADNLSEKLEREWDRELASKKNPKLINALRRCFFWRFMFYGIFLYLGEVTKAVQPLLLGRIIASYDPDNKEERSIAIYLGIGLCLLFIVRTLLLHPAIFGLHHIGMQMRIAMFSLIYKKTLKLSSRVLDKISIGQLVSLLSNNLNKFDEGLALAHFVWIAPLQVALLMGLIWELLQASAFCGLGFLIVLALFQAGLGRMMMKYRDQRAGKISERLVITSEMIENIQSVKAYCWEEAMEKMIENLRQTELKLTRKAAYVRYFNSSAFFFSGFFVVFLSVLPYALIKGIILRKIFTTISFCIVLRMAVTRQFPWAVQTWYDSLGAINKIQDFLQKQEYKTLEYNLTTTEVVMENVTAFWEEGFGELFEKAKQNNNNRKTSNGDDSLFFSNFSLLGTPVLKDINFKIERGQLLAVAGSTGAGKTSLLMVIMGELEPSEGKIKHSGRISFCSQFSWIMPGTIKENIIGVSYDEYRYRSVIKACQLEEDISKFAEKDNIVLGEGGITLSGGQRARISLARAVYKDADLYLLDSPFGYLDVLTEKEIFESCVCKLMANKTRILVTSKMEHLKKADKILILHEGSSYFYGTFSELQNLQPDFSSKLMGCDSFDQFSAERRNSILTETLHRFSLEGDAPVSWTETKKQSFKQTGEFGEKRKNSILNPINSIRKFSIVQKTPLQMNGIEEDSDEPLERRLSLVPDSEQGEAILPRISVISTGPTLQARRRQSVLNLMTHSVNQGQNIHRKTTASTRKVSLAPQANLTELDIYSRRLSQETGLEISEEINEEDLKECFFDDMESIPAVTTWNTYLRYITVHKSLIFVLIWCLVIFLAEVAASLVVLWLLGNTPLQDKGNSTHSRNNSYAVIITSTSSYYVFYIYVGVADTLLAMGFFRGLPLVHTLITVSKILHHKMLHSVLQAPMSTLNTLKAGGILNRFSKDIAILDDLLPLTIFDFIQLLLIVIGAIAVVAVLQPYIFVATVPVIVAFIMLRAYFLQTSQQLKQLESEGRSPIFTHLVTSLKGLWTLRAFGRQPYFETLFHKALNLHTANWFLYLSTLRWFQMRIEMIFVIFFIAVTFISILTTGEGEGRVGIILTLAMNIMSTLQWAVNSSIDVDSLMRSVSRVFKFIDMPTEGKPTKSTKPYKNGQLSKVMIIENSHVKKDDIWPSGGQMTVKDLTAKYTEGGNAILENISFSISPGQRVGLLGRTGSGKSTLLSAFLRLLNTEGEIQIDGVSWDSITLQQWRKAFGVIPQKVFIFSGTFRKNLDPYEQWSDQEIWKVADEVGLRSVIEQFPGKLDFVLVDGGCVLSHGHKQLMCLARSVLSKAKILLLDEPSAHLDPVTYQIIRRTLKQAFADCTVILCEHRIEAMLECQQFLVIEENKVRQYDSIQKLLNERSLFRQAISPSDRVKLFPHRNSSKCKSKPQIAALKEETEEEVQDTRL
T1 sequence (P13569 with tags, fused parts or gaps DEL508-508): as above

Row | EC50 (F508delCFTR; [1]) [nM] | Maximum % activity (with co-corrector) (F508delCFTR; with co-corrector (2 μM)) [%] | EC50 (F508delCFTR; [2]) [nM] | Maximum % activity (without co-corrector) (F508delCFTR; without co-corrector) [%] | Emax (% Dual) (F508del/F508del CFTR) | EC50 (F508del/F508del CFTR) [nM] | Structure (SMILES)
1 | 2480 | 666 | 4320 | 248 | 173 | > 300 | COc1ncc([C@@H]2C[C@]2(C(=O)NS(=O)(=O)c2cccc3nc(C)ccc23)c2cc(C)ccc2OC)cn1 (racemic) [Example 36, rac-(1r,2s)-1-(2-methoxy-5-methylphenyl)-2-(2-methoxypyrimidin-5-yl)-N-(2-methylquinoline-5-sulfonyl)cyclopropane-1-carboxamide]
2 | 639 | – | 1230 | 563 | 317 | 18 | COc1cnc([C@@H]2C[C@]2(C(=O)NS(=O)(=O)c2cccc3nc(C)ccc23)c2cc(C)ccc2OC)cn1 (racemic) [Example 39, rac-(1r,2r)-1-(2-methoxy-5-methylphenyl)-2-(5-methoxypyrazin-2-yl)-N-(2-methylquinoline-5-sulfonyl)cyclopropane-1-carboxamide]
3 | 1770 | – | 2980 | 497 | 244 | 110 | COc1cncc([C@@H]2C[C@]2(C(=O)NS(=O)(=O)c2cccc3nc(C)ccc23)c2cc(C)ccc2OC)c1 (racemic) [Example 41, rac-(1r,2s)-1-(2-methoxy-5-methylphenyl)-2-(5-methoxypyridin-3-yl)-N-(2-methylquinoline-5-sulfonyl)cyclopropane-1-carboxamide]
4 | 1150 | – | 1850 | 690 | 127 | 182 | COc1ccc(C)cc1[C@@]1(C(=O)NS(=O)(=O)c2cccc3nc(C)ccc23)C[C@H]1c1cncc(F)c1 (racemic) [Example 42, rac-(1r,2s)-2-(5-fluoropyridin-3-yl)-1-(2-methoxy-5-methylphenyl)-N-(2-methylquinoline-5-sulfonyl)cyclopropane-1-carboxamide]
5 | 1110 | – | 2440 | 700 | 281 | 74.5 | COc1ccc(C)cc1[C@@]1(C(=O)NS(=O)(=O)c2cccc3nc(C)ccc23)C[C@H]1c1cnc(C(C)C)cn1 (racemic) [Example 61, rac-(1r,2r)-1-(2-methoxy-5-methylphenyl)-N-(2-methylquinoline-5-sulfonyl)-2-[5-(propan-2-yl)pyrazin-2-yl]cyclopropane-1-carboxamide]
6 | 474 | – | 990 | 483 | 329 | 261 | CCOc1cnc([C@@H]2C[C@]2(C(=O)NS(=O)(=O)c2cccc3nc(C)ccc23)c2cc(C)ccc2OC)cn1 (racemic) [Example 62, rac-(1r,2r)-2-(5-ethoxypyrazin-2-yl)-1-(2-methoxy-5-methylphenyl)-N-(2-methylquinoline-5-sulfonyl)cyclopropane-1-carboxamide]
7 | 364 | – | 825 | 825 | 282 | 30.3 | COc1ccc(C)cc1[C@@]1(C(=O)NS(=O)(=O)c2cccc3nc(C)ccc23)C[C@H]1c1ccc(C(C)C)nc1OC (racemic) [Example 78, rac-(1r,2s)-1-(2-methoxy-5-methylphenyl)-2-[2-methoxy-6-(propan-2-yl)pyridin-3-yl]-N-(2-methylquinoline-5-sulfonyl)cyclopropane-1-carboxamide]
8 | 171 | 860 | 465 | 388 | 205 | 21.6 | COc1ccc([C@@H]2C[C@]2(C(=O)NS(=O)(=O)c2cccc3nc(C)ccc23)c2cc(C)ccc2OC)c(OC)n1 (racemic) [Example 79, rac-(1r,2s)-2-(2,6-dimethoxypyridin-3-yl)-1-(2-methoxy-5-methylphenyl)-N-(2-methylquinoline-5-sulfonyl)cyclopropane-1-carboxamide]

Row | Structure (SMILES) | EC50 (F508delCFTR; [1]) [nM] | Maximum % activity (with co-corrector) (F508delCFTR; with co-corrector (2 μM)) [%] | EC50 (F508delCFTR; [2]) [nM] | Maximum % activity (without co-corrector) (F508delCFTR; without co-corrector) [%] | Emax (% Dual) (F508del/F508del CFTR) | EC50 (F508del/F508del CFTR) [nM]
9 | COc1ccc(C)cc1[C@@]1(C(=O)NS(=O)(=O)c2cccc3nc(C)ccc23)C[C@H]1c1cccnc1OC (racemic) [Example 40, rac-(1r,2s)-1-(2-methoxy-5-methylphenyl)-2-(2-methoxypyridin-3-yl)-N-(2-methylquinoline-5-sulfonyl)cyclopropane-1-carboxamide] | 749 | 934 | 1550 | 448 | 328 | 19.6
